Here are results for 34 molecules from US20230096028A1, “BICYCLIC HETEROCYCLYL COMPOUNDS AND USES THEREOF” (Revolution Medicines, Inc., priority 2019, published 2023).

Assay [1] has as its system PC-9 cells (EGFR Ex19Del). The assay is described as follows: Potency Assay: pERK (SOS1 pERK IC50 Assay, AlphaLISA SureFire Ultra p-ERK1/2). The format is cell-based. As to conditions: Homo sapiens; PC-9 cells (EGFR Ex19Del), 1 hour incubation, AlphaLISA p-ERK1/2; read-out: SOS1 pERK IC50. Here is the method:
The purpose of this assay is to measure the ability of test compounds to inhibit SOS1 function in cells. SOS1 activates RAS proteins by catalyzing the conversion of RAS GDP to RAS GTP in response to receptor tyrosine kinase activation. […] The procedure described below measures the level of cellular pERK in response to test compounds in PC-9 cells (EGFR Ex19Del).
PC-9 cells were grown and maintained using media and procedures recommended by the ATCC. On the day prior to compound addition, cells were plated in 384-well cell culture plates (40 μL/well) and grown overnight in a 37° C., 5% CO2 incubator. Test compounds were prepared in 10, 3-fold dilutions in DMSO, with a top concentration of 10 mM. On the day of the assay, 40 nL of test compound was added to each well of cell culture plate using an Echo550 liquid handler (LabCyte). Concentrations of test compound were tested in duplicate with highest test concentration being 10 μM. After compound addition, cells were incubated for 1 hour at 37° C., 5% CO2. Following incubation, culture medium was removed and cells were washed once with phosphate buffered saline.
Cellular pERK level was determined using the AlphaLISA SureFire Ultra p-ERK1/2 Assay Kit (PerkinElmer). Cells were lysed in 25 μL lysis buffer, with shaking at 600 RPM at room temperature for 15 minutes. Lysate (10 μL) was transferred to a 384-well Opti-plate (PerkinElmer) and 5 μL acceptor mix was added. The plate was centrifuged at 1000 RPM for 1 minute, and incubated in the dark for 2 hours. Following this incubation, 5 μL of donor mix was added, the plate was sealed and centrifuged at 1000 RPM for 1 minute, and the mixture was incubated for 2 hours at room temperature. Signal was read on an Envision plate reader (PerkinElmer) using standard AlphaLISA settings. Analysis of raw data was carried out in Excel (Microsoft) and Prism (GraphPad). Signal was plotted vs. the decadal logarithm of compound concentration, and IC50 was determined by fitting a 4-parameter sigmoidal concentration response model.
(In general: Alpha assays give light when donor and acceptor beads are brought close together.)

The target of assay [2] is T1, SOS1 catalytic domain (residues 564-1049) (Homo sapiens, UniProt Q07889).
T1 sequence (Q07889 564-1049): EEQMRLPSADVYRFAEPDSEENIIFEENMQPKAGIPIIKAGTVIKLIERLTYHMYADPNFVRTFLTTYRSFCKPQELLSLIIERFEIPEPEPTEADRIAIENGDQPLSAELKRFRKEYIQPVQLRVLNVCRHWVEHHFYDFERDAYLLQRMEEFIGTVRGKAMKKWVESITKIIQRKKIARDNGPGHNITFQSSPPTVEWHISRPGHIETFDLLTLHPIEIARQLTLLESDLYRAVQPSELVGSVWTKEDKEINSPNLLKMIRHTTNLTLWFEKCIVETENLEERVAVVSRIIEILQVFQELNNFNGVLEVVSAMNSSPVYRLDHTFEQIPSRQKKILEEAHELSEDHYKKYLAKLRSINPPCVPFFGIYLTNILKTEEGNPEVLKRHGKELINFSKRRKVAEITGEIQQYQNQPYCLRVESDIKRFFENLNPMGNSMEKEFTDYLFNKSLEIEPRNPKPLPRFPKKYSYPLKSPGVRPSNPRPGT
Briefly: Mode of Action Assay: inhibition of SOS1 nucleotide exchange activity (SOS1 TR-FRET IC50 Assay). Background: In TR-FRET formats the signal depends on donor and acceptor labels being close together.

SMILES strings stand for the structures. pIC50: −log10 of the molar value. Some results are limits rather than exact numbers.

Broadly, the pIC50 is the IC50 on a negative log10 scale, so that one unit is a factor of ten. For `Cc1nc2c(c(N[C@H](C)c3cc(N)cc(C(F)(F)F)c3)n1)CCN(C(=O)N1CCOCC1)CC2` [Example 112, N-[(1R)-1-[3-amino-5-(trifluoromethyl)phenyl]ethyl]-2-methyl-7-(morpholine-4-carbonyl)-5H,6H,7H,8H,9H-pyrimido[4,5-d]-azepin-4-amine], the pIC50 in assay [1] and in assay [2] was less than 6.00 in each case.
Regarding `C[C@@H](Nc1nc(Cl)nc2c1CN(C(=O)N1CCOC(c3cccnc3)C1)C2)c1cc(N)cc(C(F)(F)F)c1` (some centres unmarked) [Example 151], the pIC50 in assay [1] and in assay [2] was greater than 6.00 each time.
On to `C[C@@H](Nc1ncnc2c1CN(C1CCOCC1)C(=O)N2C)c1cc(N)cc(C(F)(F)F)c1` [Example 176, (R)-5-((1-(3-amino-5-(trifluoromethyl)phenyl)ethyl)amino)-1-methyl-3-(tetrahydro-2H-pyran-4-yl)-3,4-dihydropyrimido[4,5-d]pyrimidin-2(1H)-one], for which the pIC50 in assay [1] and in assay [2] was greater than 6.00 each time.
`C[C@@H](Nc1nc(Cl)nc2c1CN(C1CNC1)CC2)c1cccc(C(F)(F)F)c1` [Example 177, (R)-6-(azetidin-3-yl)-2-chloro-N-(1-(3-(trifluoromethyl)phenyl)ethyl)-5,6,7,8-tetrahydropyrido[4,3-d]pyrimidin-4-amine]: the figures for the pIC50 in assay [1] and in assay [2] were less than 6.00 and greater than 6.00, respectively.
As to `C[C@@H](Nc1nc(Cl)nc2c1CN(C(=O)C1(O)CCOCC1)CC2)c1cc(N)cc(C(F)(F)F)c1` [Example 189], the pIC50 in assay [1] and in assay [2] was less than 6.00 each time.
As for `CO[C@H]1C[C@H](C(=O)N2CCc3nc(Cl)nc(N[C@H](C)c4cc(N)cc(C(F)(F)F)c4)c3C2)C1` [Example 190], the negative-log IC50 (pIC50) in assay [1] and in assay [2] was less than 6.00 throughout.
`CC(C)OC1(C(=O)N2CCc3nc(Cl)nc(N[C@H](C)c4cc(N)cc(C(F)(F)F)c4)c3C2)CCOC1` (some centres unmarked) [Example 195]: the negative-log IC50 (pIC50) in assay [1] and in assay [2] was less than 6.00 in each case.
For the molecule `COC12CCC(C(=O)N3CCc4nc(Cl)nc(N[C@H](C)c5cc(N)cc(C(F)(F)F)c5)c4C3)(CC1)C2` [Example 196], the pIC50 in assay [1] and in assay [2] was less than 6.00 each time.
As for `C[C@@H](Nc1nc(Cl)nc2c1CN(C(=O)C1CC13CCOCC3)CC2)c1cc(N)cc(C(F)(F)F)c1` (some centres unmarked) [Example 197], the negative logarithm of the IC50 (pIC50) in assay [1] and in assay [2] was less than 6.00 in each case.
With `COC1CCC(C(=O)N2CCc3nc(Cl)nc(N[C@H](C)c4cc(N)cc(C(F)(F)F)c4)c3C2)C1` (some centres unmarked) [Example 199], the pIC50 in assay [1] and in assay [2] was less than 6.00 each time.
Turning to `C[C@@H](Nc1nc(Cl)nc2c1CN(C(=O)C1CCCN1c1ncccn1)CC2)c1cc(N)cc(C(F)(F)F)c1` (some centres unmarked) [Example 200], the pIC50 in assay [1] and in assay [2] was less than 6.00 each time.
With `COC1(C(=O)N2CCc3nc(Cl)nc(N[C@H](C)c4cc(N)cc(C(F)(F)F)c4)c3C2)CC1` [Example 201], the pIC50 in assay [1] and in assay [2] was less than 6.00 in each case.
As for `C[C@@H](Nc1nc(Cl)nc2c1CN(C(=O)C1(C#N)CCC1)CC2)c1cc(N)cc(C(F)(F)F)c1` [Example 202], the pIC50 in assay [1] and in assay [2] was less than 6.00 each time.
For the molecule `COC1(C(=O)N2CCc3nc(Cl)nc(N[C@H](C)c4cc(N)cc(C(F)(F)F)c4)c3C2)CCC1` [Example 203], the pIC50 in assay [1] and in assay [2] was less than 6.00 in each case.
Regarding `COCC1(C(=O)N2CCc3nc(Cl)nc(N[C@H](C)c4cc(N)cc(C(F)(F)F)c4)c3C2)CCC1` [Example 204], the pIC50 in assay [1] is less than 6.00; in assay [2] it was greater than 6.00.
On to `C[C@@H](Nc1nc(Cl)nc2c1CN(C(=O)C1(CO)CC1)CC2)c1cc(N)cc(C(F)(F)F)c1` [Example 206], for which the pIC50 in assay [1] and in assay [2] was less than 6.00 throughout.
As for `C[C@@H](Nc1nc(Cl)nc2c1CN(C(=O)C1CCC1)CC2)c1cc(N)cc(C(F)(F)F)c1` [Example 209], the pIC50 in assay [1] and in assay [2] was less than 6.00 each time.
As for `C[C@@H](Nc1nc(Cl)nc2c1CN(C(=O)C13CC(C)(C1)OC31COC1)CC2)c1cc(N)cc(C(F)(F)F)c1` [Example 210], the pIC50 in assay [1] and in assay [2] was less than 6.00 in each case.
On to `C[C@@H](Nc1nc(Cl)nc2c1CN(C(=O)C13CC(C1)C3)CC2)c1cc(N)cc(C(F)(F)F)c1` [Example 211], for which the pIC50 in assay [1] and in assay [2] was less than 6.00 each time.
With `COCC1(C(=O)N2CCc3nc(Cl)nc(N[C@H](C)c4cc(N)cc(C(F)(F)F)c4)c3C2)CC1` [Example 213], the pIC50 in assay [1] and in assay [2] was less than 6.00 throughout.
Turning to `C[C@@H](Nc1nc(Cl)nc2c1CN(C(=O)C13OCCCC1C3(F)F)CC2)c1cc(N)cc(C(F)(F)F)c1` (some centres unmarked) [Example 214], the negative logarithm of the IC50 (pIC50) in assay [1] and in assay [2] was less than 6.00 in each case.
Turning to `C[C@@H](Nc1nc(Cl)nc2c1CN(C(=O)[C@]13COC[C@H]1CS(=O)(=O)C3)CC2)c1cc(N)cc(C(F)(F)F)c1` [Example 215], the negative logarithm of the IC50 (pIC50) in assay [1] and in assay [2] was less than 6.00 throughout.
As to `C[C@@H](Nc1nc(Cl)nc2c1CN(C(=O)[C@@]13CCC[C@@H]1OCC3)CC2)c1cc(N)cc(C(F)(F)F)c1` [Example 216], the pIC50 in assay [1] and in assay [2] was less than 6.00 throughout.
Regarding `C[C@@H](Nc1nc(Cl)nc2c1CN(C(=O)C13CCC(CC1)O3)CC2)c1cc(N)cc(C(F)(F)F)c1` [Example 218], the pIC50 in assay [1] and in assay [2] was less than 6.00 throughout.
Consider `C[C@@H](Nc1nc(Cl)nc2c1CN(C(=O)C13COC(CCO1)C3)CC2)c1cc(N)cc(C(F)(F)F)c1` (some centres unmarked) [Example 220], for which the pIC50 in assay [1] and in assay [2] was less than 6.00 throughout.
As to `COC1(C(=O)N2CCc3nc(Cl)nc(N[C@H](C)c4cc(N)cc(C(F)(F)F)c4)c3C2)CCCOC1` (some centres unmarked) [Example 224], the pIC50 in assay [1] and in assay [2] was less than 6.00 throughout.
Consider `C[C@@H](Nc1nc(Cl)nc2c1CN(C(=O)c1cc(N3CCOCC3)nc(N3CCOCC3)n1)CC2)c1cc(N)cc(C(F)(F)F)c1` [Example 230], for which the pIC50 in assay [1] and in assay [2] was less than 6.00 each time.
In the case of `COc1cccc(C(=O)N2CCc3nc(Cl)nc(N[C@H](C)c4cc(N)cc(C(F)(F)F)c4)c3C2)n1` [Example 242], the pIC50 is less than 6.00 in assay [1] and greater than 6.00 in assay [2].
As to `C[C@@H](Nc1nc(Cl)nc2c1CN(C(=O)c1cncc(N3CCOCC3)n1)CC2)c1cc(N)cc(C(F)(F)F)c1` [Example 243], the pIC50 in assay [1] and in assay [2] was less than 6.00 in each case.
Take `COc1ccc(C(=O)N2CCc3nc(Cl)nc(N[C@H](C)c4cc(N)cc(C(F)(F)F)c4)c3C2)nc1` [Example 245]: the pIC50 in assay [1] and in assay [2] was less than 6.00 throughout.
`C[C@@H](Nc1nc(Cl)nc2c1CN(C(=O)c1ccc3c(n1)OCCO3)CC2)c1cc(N)cc(C(F)(F)F)c1` [Example 249]: the pIC50 in assay [1] and in assay [2] was less than 6.00 throughout.
`C[C@@H](Nc1nc(Cl)nc2c1CN(C(=O)c1cccc(Cl)n1)CC2)c1cc(N)cc(C(F)(F)F)c1` [Example 252]: the pIC50 in assay [1] and in assay [2] was less than 6.00 throughout.
Turning to `COC1COCCC1CC(=O)N1Cc2nc(Cl)nc(N[C@H](C)c3cc(N)cc(C(F)(F)F)c3)c2C1` (some centres unmarked) [Example 258], the pIC50 in assay [1] and in assay [2] was greater than 6.00 throughout.
For `COC1(C(=O)N2Cc3nc(Cl)nc(N[C@H](C)c4cccc(C(F)(F)CO)c4)c3C2)CN(C2COC2)C1` [Example 267], the negative logarithm of the IC50 (pIC50) in assay [1] and in assay [2] was greater than 6.00 each time.
